This note sets out measurements from patent US5015661A, “Chromanes and their pharmaceutical compositions and methods” (Hoffmann-La Roche Inc., priority 1989, dated 1991).

This experiment has as its target T1, Δ^5 -lipoxygenase from rat basophilic leukemia (RBL-1) cells (Rattus norvegicus, UniProt P12527).
T1 construct: endogenous in cells; host or cells: RBL-1 rat basophilic leukemia cells (ATCC CRL 1378); 113,000×g supernatant (cytosolic fraction)
T1 sequence (P12527 1-673): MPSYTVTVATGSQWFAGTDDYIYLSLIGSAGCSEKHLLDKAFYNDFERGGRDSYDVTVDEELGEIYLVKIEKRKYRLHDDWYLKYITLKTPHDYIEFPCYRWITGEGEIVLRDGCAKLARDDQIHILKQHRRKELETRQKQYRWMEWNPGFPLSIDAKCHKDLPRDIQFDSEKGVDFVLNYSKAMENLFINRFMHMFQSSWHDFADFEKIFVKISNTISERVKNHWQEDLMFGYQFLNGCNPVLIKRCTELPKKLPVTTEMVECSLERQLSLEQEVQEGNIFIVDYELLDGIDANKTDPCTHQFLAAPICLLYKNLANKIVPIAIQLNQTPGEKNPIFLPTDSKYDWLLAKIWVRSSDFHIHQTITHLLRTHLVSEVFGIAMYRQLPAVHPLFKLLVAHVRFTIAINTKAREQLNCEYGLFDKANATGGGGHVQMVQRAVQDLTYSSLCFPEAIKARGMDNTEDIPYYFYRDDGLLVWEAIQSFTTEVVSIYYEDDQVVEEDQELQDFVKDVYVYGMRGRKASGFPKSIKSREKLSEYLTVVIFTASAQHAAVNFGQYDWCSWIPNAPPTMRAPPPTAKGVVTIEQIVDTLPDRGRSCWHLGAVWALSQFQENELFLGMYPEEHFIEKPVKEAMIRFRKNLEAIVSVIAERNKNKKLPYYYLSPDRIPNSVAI
The experiment in a line: In vitro test for Δ^5 -lipoxygenase inhibitors (5-LO), RBL-1 cell enzyme, 5-HETE radioimmunoassay. Type of experiment: biochemical. Conditions: RBL-1 5-LO; 10 min preincubation; 8.25 μM arachidonic acid, 10 min at 37° C.; 5-HETE formation; read-out: 5-LO IC-50. Here is the method: IN VITRO TEST FOR Δ^5 -LIPOXYGENASE INHIBITORS Compounds of formula I of the invention were tested for their effect on Δ^5 -lipoxygenase from rat basophilic leukemia (RBL-1) cells. Materials. RBL-1 cells (CRL 1378) were obtained from the American TYpe Culture Collection, Rockville, MD. DMEM and glutamine were purchased from Flow Labs, McLean, VA. FBS (Gibco, Grand Island, NY) was heat-inactivated for 1 hour at 56° C. Reagents for protein determinations were obtained from Biorad, Rockville Center, NY. Arachidonic acid (approx. 99%), ATP (disodium slat), BHT, dextran (clinical grade), tetrasodium EDTA, gelatin, gentamycin sulfate solution, reduced glutathione, 1 M HEPES buffer, indomethacin, NaCl, reduced NADpH, Trizma 7.2, and Trizma 8.5 were purchased from Sigma Chemical, St. Louis, MO. CaCl2 dihydrate, Norit A charcoal, and citric acid monohydrate were obtained from Fisher Scientific, Pittsburgh, PA. […] MA. A synthetic 5-HETE standard was supplied by Dr. M. Rosenberger, Dept. of Medicinal Chemistry, Hoffmann-La Roche, Nutley, NJ; [see Corey, E.J., and Hashimoto, S. (1981 ) Tet. Letters, 22, 299-302 for method of preparation]. Ecoscint liquid sointillation fluid was purchased from National Diagnostics, Sommerville, NJ. Isolation of 5-lipoxygenase. […] Approximately 7-9 days after thawing, RBL-1 cells growing in log phase were seeded at a density of 7500 viable cells/ml in a closed 89-liter spinner flask. The cells were stirred constantly for 3-4 days at 37° C. until they reached a density greater than 500,000/ml but less than 800,00/ml. RBL-1 cells were harvested by centrifugation at 4° C. at 1500×g for 10 minutes and were washed 3 times with ice cold 0.05 M tris-HCl, pH 7.2, tetrasodium EDTA (buffer 1). The cells were washed last in 0.05 M Tris-HCl containing 14 μM indomethacin, 1 mM glutathione, 1.5 mM NaCl, and 1 mM tetrasodium EDTA (buffer 2), resuspended at a density of 5×108'/ml (approximately 10 ml) and disrupted manually at 4° C. using a 40 ml Dounce (type A pestle) homogenizer. After 5 minutes of homogenization. 95% cell lysis was confirmed by phase contrast microscopy. The broken cells were diluted 1:2 with buffer 2 and centrifuged at 12,380×g for 10 minutes at 4° C. to pellet cellular debris and granules. The 12,380×g supernatant was centrifuged at 113,000×g for 60 minutes to pellet microsomes. The high-speed supernatant (5.9±0.48 mg/ml protein) was frozen immediately in 1 ml aliquots using a dry ice/acetone bath. The isolated cytosolic fraction was stored in liquid N2 for up to 8 weeks without loss of 5-LO enzyme activity. Lipoxygenase Assay. Compounds Were dissolved at 25 mM concentration in DMSO, then diluted to final concentrations using 95% ethanol. For a typical enzyme assay, the partially purified 5-LO preparation was preincubated with drug or vehicle for 10 minutes at 30° C. The assay tubes were then transferred at a 37° C. water bath where they received arachidonic acid (8.25 μM final concentration) to initiate 5-LO activity. In addition to enzyme and substrate, each reaction tube contained: 12.5 μmoles of Tris-HCl (pH 7.2), 25 nmoles glutathione, 0.35 nmoles indomethacin and 1.25 μmoles of CaCl2 and ATP to yield a total of volume of 250 μl. The enzyme reaction was terminated after 10 minutes by the addition of 75μl […] citric acid to yield pH 3.5. The samples were immediately cooled on ice and neutralized by dilution with 0.05 M Tris-HCl, pH 8.5, which contained 25 mg/1 BHT. A boiled cytosol control was placed at the end of each assay to measure non-enzymatic oxidation of arachidonic acid. The mean specific activity of the 5-LO enzyme preparation was approximately 66.16±14.39 pmol 5-HETE/min/mg protein. Radioimmunoassay for 5-HETE. Under the assay conditions described, the 5-LO catalyzed the conversion of arachidonic acid to 5-HPETE which, as a consequence o peroxidase activity, was reduced to 5-HETE. A specific radioimmunoassay was employed to quantitate the amount (pmoles) of 5-HETE formed during the enzyme reaction. […]

Consider `COc1cc(CO)cc2cc(C3(C)CCc4c(C)c(O)c(C)c(C)c4O3)oc12` (racemic) [Example 55, rac-2-(3,4-Dihydro-6-hydroxy-2,5,7,8-tetramethyl-2H-1-benzopyran-2-yl)-7-methoxybenzofuran-5-methanol], for which the IC50 was 3 nM. Then `Cc1c(C)c2c(c(C)c1O)CCC(C)(C#Cc1ccccc1)O2` (racemic) [Example 1, rac-3,4-Dihydro-2,5,7,8-tetramethyl-2-(phenylethynyl)-2H-1-benzopyran-6-ol], with 40 nM.

As to `Cc1c(C)c2c(c(C)c1O)CCC(C)(C#Cc1ccc(F)c(F)c1)O2` (racemic) [Example 36, rac-2-[(3,4-Difluorophenyl)ethynyl]-3,4-dihydro-2,5,7,8-tetramethyl-2H-1-benzopyran-6-ol], the IC50 is 120 nM. Next, `COc1cccc(C#CC2(C)CCc3c(C)c(O)c(C)c(C)c3O2)c1` (racemic) [Example 22, rac-3,4-Dihydro-2-(3-methoxyphenyl)ethynyl)-2,5,7,8-tetra-methyl-2H-1-benzopyran-6-ol]: 170 nM; `Cc1c(C)c2c(c(C)c1O)CC[C@](C)(C#Cc1cccs1)O2` [Example 5, (R)-3,4-Dihydro-2,5,7,8-tetramethyl-2-[(2-thienyl)ethynyl]-2H-1-benzopvran-6-ol]: 15 nM; `Cc1c(C)c2c(c(C)c1O)CCC(C)(C#Cc1ccccn1)O2` (racemic) [Example 15, rac-3,4-Dihydro-2,5,7,8-tetramethyl1-2-[(2-pyridinyl)ethynyl]-2H-1-benzopyran-6-ol]: 16 nM. In the case of `Cc1c(C)c2c(c(C)c1O)CCC(C)(CCc1cccnc1)O2` (racemic) [Example 59, rac-3,4-Dihydro-2,5,7,8-tetramethyl-2-[2-(3-pyridinyl)ethyl]-2H-1-benzopyran-6-ol], the IC50 worked out at 30 nM. Next, `CCCCc1ccc(C#CC2(C)CCc3c(C)c(O)c(C)c(C)c3O2)s1` (racemic) [Example 31, rac-2-[(5-Butyl-2-thienyl)ethynyl]-3,4-dihydro-2,5,7,8-tetramethyl-2H-1-benzopyran-6-ol]: 1000 nM; `COc1ccc(CCC2(C)CCc3c(C)c(O)c(C)c(C)c3O2)cc1OC(C)=O` (racemic) [Example 60, rac-2-{2-[3-(Acetyloxy)-4-methoxyphenyl]ethyl}-3,4-dihydro-2,5,7,8-tetramethyl-2H-1-benzopyran-6ol]: 56 nM. For the compound `Cc1c(C)c2c(c(C)c1O)CC[C@@](C)(C#Cc1cccs1)O2` [Example 13, (S)-3,4-Dihydro-2,5,7,8-tetramethyl-2-[(2-thienyl)ethynyl]-2H-1-benzopyran-6-ol], the IC50 stood at 17 nM.

Take `Cc1c(C)c2c(c(C)c1O)CCC(C)(C#Cc1ccc(-c3ccccn3)s1)O2` (racemic) [Example 26, rac-3,4-Dihydro-2,5,7,8-tetramethyl-2-{[5-(2-pyridinyl)-2-thienyl]ethynyl}-2H-1-benzopyran-6-ol]: the IC50 was 160 nM. For the compound `CCCCc1ccc(CCC2(C)CCc3c(C)c(O)c(C)c(C)c3O2)s1` (racemic) [Example 66, rac-2-[2-(5-Butyl-2-thienyl)ethyl]-3,4-dihydro-2,5,7,8-tetramethyl-2H-1-benzopyran-6-ol], the IC50 came to 140 nM. In the case of `Cc1c(C)c2c(c(C)c1O)CCC(C)(C#Cc1cnc3ccccc3c1)O2` (racemic) [Example 33, rac-3,4-Dihydro-2,5,7,8-tetramethyl-2-(3-quinolinylethynyl)-2H-1-benzopyran-6-ol], the IC50 was 160 nM. Take `Cc1ccc2oc(C3(C)CCc4c(C)c(O)c(C)c(C)c4O3)cc2n1` (racemic) [Example 51, rac-3,4-Dihydro-2-(5-methylfuro[3,2[b]pyridin-2-yl)-2,5,7,8-tetramethyl-2H-1-benzopyran-6ol]: the IC50 worked out at 3 nM. Next, `Cc1c(C)c2c(c(C)c1O)CCC(C)(C#Cc1csc3ccccc13)O2` (racemic) [Example 16, rac-[2-(Benzo[b]thiophen-3-yl)ethynyl]-3.4-dihydro-2,5,7,8-tetramethyl-2H-1-benzopyran-2H-1-benzopyran-6-ol]: 1.6 nM.

As for `Cc1c(C)c2c(c(C)c1O)CCC(C)(C#Cc1ccc(OCc3ccccc3)c(O)c1)O2` (racemic) [Example 43, rac-3,4-Dihydro-2-{[3-hydroxy-4-(phenylmethoxY)phenyl]-ethynyl}-2,5,7,8-tetramethyl-2H-1-benzopyran-6-ol], the IC50 worked out at 24 nM. For the compound `Cc1c(C)c2c(c(C)c1O)CCC(C)(CCc1cccs1)O2` (racemic) [Example 57, rac-3,4-Dihydro-2,5,7,8-tetramethyl-2-[2-(2-thienyl)ethyl]-2H-1-benzo-pyran-6-ol], the IC50 was 50 nM. For the compound `CC(=O)Oc1cc(C#CC2(C)CCc3c(C)c(O)c(C)c(C)c3O2)ccc1OCc1ccccc1` (racemic) [Example 41, rac-2-{[3-Acetyloxy-4-(phenylmethoxy)phenyl]ethynyl}-3,4-dihydro-2,5,7,8-tetramethyl-2H-1-benzopyran-6-ol], the IC50 is 32 nM. Consider `Cc1c(C)c2c(c(C)c1O)CCC(C)(CCc1ccc(-c3ccccn3)s1)O2` (racemic) [Example 65, rac-3,4-Dihydro-2,5,7,8-tetramethyl-2-{2-[5-(2-pyridinyl)-2-thienyl]ethyl}-2H-1-benzopyran-6ol], for which the IC50 worked out at 170 nM.

Consider `COc1cc(C=O)cc(C#CC2(C)CCc3c(C)c(O)c(C)c(C)c3O2)c1O` (racemic) [Example 28, rac-3-[(3,4-Dihydro-6-hydroxy-2,5,7,8-tetramethyl-2H-1-benzopyran-2-yl)ethynyl]-4-hydroxy-5-methoxybenzaldehyde], for which the IC50 was 130 nM. Regarding `Cc1c(C)c2c(c(C)c1O)CCC(C)(CCc1ccccn1)O2` (racemic) [Example 58, rac-3,4-Dihydro-2,5,7,8-tetramethyl-2-[2-(2-pyridinyl)ethyl]-2H-1-benzopyran-6-ol], the IC50 was found to be 60 nM. `Cc1c(C)c2c(c(C)c1O)CCC(C)(C#Cc1ccccc1N)O2` (racemic) [Example 40, rac-2-[(2-Aminophenyl)ethynyl]-3,4-dihydro-2,5,7,8-tetramethyl-2H-1-benzopyran-6-ol]: the IC50 came to 20 nM.
